Experimental data reported in patent US12384776B2, “Compounds and uses thereof” (Foghorn Therapeutics Inc., priority 2019, dated 2025).

Biological target: Nanoluciferase-BRD9 fusion protein (3×FLAG-NLuc-BRD9) in SYO-1 cells (Homo sapiens (Human), UniProt Q9H8M2)
Assay: SYO1 BRD9 NanoLuc degradation assay
Assay type: cell-based
Conditions: SYO-1 cells expressing 3×FLAG-NLuc-BRD9, 6 hours incubation, top dose 1 μM
Method: Procedure: A stable SYO-1 cell line expressing 3×FLAG-NLuc-BRD9 was generated. On day 0 cells were seeded in 30 μL media into each well of 384-well cell culture plates. The seeding density was 8000 cells/well. On day 1, cells were treated with 30 nL DMSO or 30 nL of 3-fold serially DMSO-diluted compounds (10 points in duplicates with 1 μM as final top dose). Subsequently plates were incubated for 6 hours in a standard tissue culture incubator and equilibrated at room temperature for 15 minutes. Nanoluciferase activity was measured by adding 15 μL of freshly prepared Nano-Glo Luciferase Assay Reagent (Promega N1130), shaking the plates for 10 minutes and reading the bioluminescence using an EnVision reader.
Results: The Inhibition % was calculated using the following formula: % Inhibition=100×(LumHC−LumSample)/(LumHC−LumLC). DMSO treated cells are employed as High Control (HC) and 1 μM of a known BRD9 degrader standard treated cells are employed as Low Control (LC).

Nanoluciferase-BRD9 fusion protein (3×FLAG-NLuc-BRD9) in SYO-1 cells, sequence (Q9H8M2 whole entry, the tested form may be a part): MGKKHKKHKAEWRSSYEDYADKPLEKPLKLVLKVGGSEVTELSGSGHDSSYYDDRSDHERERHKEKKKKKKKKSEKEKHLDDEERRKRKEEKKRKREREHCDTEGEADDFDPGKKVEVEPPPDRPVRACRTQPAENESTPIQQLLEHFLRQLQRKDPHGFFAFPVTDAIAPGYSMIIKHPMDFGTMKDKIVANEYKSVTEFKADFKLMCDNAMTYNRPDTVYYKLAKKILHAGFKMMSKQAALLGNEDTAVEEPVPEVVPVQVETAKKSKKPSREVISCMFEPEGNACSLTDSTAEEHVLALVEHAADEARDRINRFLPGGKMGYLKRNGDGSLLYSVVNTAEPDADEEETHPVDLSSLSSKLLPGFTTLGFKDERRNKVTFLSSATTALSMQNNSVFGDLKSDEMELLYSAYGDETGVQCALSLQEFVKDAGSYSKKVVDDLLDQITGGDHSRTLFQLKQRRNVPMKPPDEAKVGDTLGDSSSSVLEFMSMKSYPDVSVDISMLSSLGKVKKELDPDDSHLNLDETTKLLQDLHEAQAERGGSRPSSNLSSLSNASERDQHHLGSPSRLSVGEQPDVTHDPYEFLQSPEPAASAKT

SMILES | IC50 [nM]
CNC(=O)N1CCc2c(-c3cnc(CN4CCC(CCN5CCN(c6ccc7c(c6)C(=O)N(C6CCC(=O)NC6=O)C7=O)CC5)CC4)c(OC)c3)cn(C)c(=O)c2C1 (stereo not shown) [Compound D92] | 10 to 100
CNC(=O)N1CCc2c(-c3cc(OC)c(CN4CCC5(CC4)CN(CCCCOc4ccc6c(c4)C(=O)N(C4CCC(=O)NC4=O)C6=O)CCO5)c(OC)c3)cn(C)c(=O)c2C1 (stereo not shown) [Compound D222] | < 10
CNC(=O)N1CCc2c(-c3cc(OC)c(CN4CCN(CCC5CCN(c6ccc7c(c6)C(=O)N(C6CCC(=O)NC6=O)C7=O)CC5)CC45COC5)c(OC)c3)cn(C)c(=O)c2C1 (stereo not shown) [Compound D98] | < 10
COc1cc(-c2cn(C)c(=O)c3c2CCN(C(=O)NCC2CC4CN(c5ccc6c(c5)C(=O)N([C@@H]5CCC(=O)NC5=O)C6=O)CC4C2)C3)cc(OC)c1CN(C)C (stereo partly shown) [Compound D123] | < 10
COc1cc(-c2cn(C)c(=O)c3c2CCN(C(=O)NCCN(C)CCNC(=O)COc2ccc4c(c2)CN(C2CCC(=O)NC2=O)C4=O)C3)cc(OC)c1CN(C)C (stereo not shown) [Compound D290] | ≥ 1000
CNC(=O)N1CCc2c(-c3cc(OC)c(CN4CC(S(=O)(=O)NCCCCOc5ccc6c(c5)C(=O)N(C5CCC(=O)NC5=O)C6=O)C4)c(OC)c3)cn(C)c(=O)c2C1 (stereo not shown) [Compound D278] | 10 to 100
COc1cc(-c2cn(C)c(=O)c3c2CCN(C(=O)NC2CC2)C3)cc(OC)c1CN1CCC(CCN2CCN(c3ccc4c(c3)CN(C3CCC(=O)NC3=O)C4=O)CC2)CC1 (stereo not shown) [Compound D85] | < 10
CNC(=O)N1CCc2c(-c3cc(OC)c(CN4CC(N(C)c5ccc6c(c5)C(=O)N(C5CCC(=O)NC5=O)C6)C4)c(OC)c3)cn(C)c(=O)c2C1 (stereo not shown) [Compound D53] | 10 to 100
CNC(=O)N1CCc2c(-c3cc(OC)c(CN4CCN(CC5CCN(c6ccc7c(c6)C(=O)N(C6CCC(=O)NC6=O)C7)CC5)CC4)c(OC)c3)cn(C)c(=O)c2C1 (stereo not shown) [Compound D40] | < 10
CNC(=O)N1CCc2c(c(-c3cc(OC)c(CN4CC5CN(C(=O)CCOCCOc6ccc7c(c6)C(=O)N(C6CCC(=O)NC6=O)C7=O)CCC54)c(OC)c3)cn(C)c2=O)C1 (stereo not shown) [Compound D295] | 100 to 1000
COc1cc(-c2cn(C)c(=O)c3c2CCN(C(=O)NCCN2CCC4C(C2)CN4c2ccc4c(c2)C(=O)N(C2CCC(=O)NC2=O)C4=O)C3)cc(OC)c1CN(C)C (stereo not shown) [Compound D187] | 10 to 100
COc1cc(-c2cn(C)c(=O)c3c2CCCC3)cc(OC)c1CN1CC(CN2CCC3(CC2)CN(c2ccc4c(c2)C(=O)N(C2CCC(=O)NC2=O)C4)C3)C1 (stereo not shown) [Compound D301] | < 10
CNC(=S)N1CCc2c(-c3cc(OC)c(CN4CCC(CCN5CCN(c6ccc7c(c6)CN(C6CCC(=O)NC6=O)C7=O)CC5)CC4)c(OC)c3)cn(C)c(=O)c2C1 (stereo not shown) [Compound D58] | < 10
CNC(=O)N1CCc2c(-c3cc(OC)c(CN(C)c4ccc5c(c4)C(=O)N(C4CCC(=O)NC4=O)C5=O)c(OC)c3)cn(C)c(=O)c2C1 (stereo not shown) [Compound D112] | < 10
CNC(=O)N1CCc2c(-c3cc(OC)c(CN4CCC(CCN5C6CC5CN(c5ccc7c(c5)C(=O)N(C5CCC(=O)NC5=O)C7=O)C6)CC4)c(OC)c3)cn(C)c(=O)c2C1 (stereo not shown) [Compound D153] | 10 to 100
COc1cc(-c2cn(C)c(=O)c3c2CCN(C(=O)NC2C[C@@H]4CN(CCCOc5ccc6c(c5)C(=O)N(C5CCC(=O)NC5=O)C6=O)C[C@H]24)C3)cc(OC)c1CN(C)C (stereo partly shown) [Compound D248] | ≥ 1000
CNC(=O)N1CCc2c(-c3cc(OC)c(CN4CCN(CCC5CCN(c6ccc7c(c6)C(=O)N(c6ccc(F)cc6F)C7=O)CC5)CC4)c(OC)c3)cn(C)c(=O)c2C1 [Compound D70] | ≥ 1000
COc1cc(-c2cn(C)c(=O)c3c2CCN(C(=O)NC2CCC4(CCN(CCCOc5ccc6c(c5)C(=O)N(C5CCC(=O)NC5=O)C6=O)C4)C2)C3)cc(OC)c1CN(C)C (stereo not shown) [Compound D250] | 100 to 1000
CNC(=O)N1CCc2c(-c3cc(OC)c(CN4CC5CN(C(=O)CCOCCOc6ccc7c(c6)C(=O)N(C6CCC(=O)NC6=O)C7=O)CCC54)c(OC)c3)cn(C)c(=O)c2C1 (stereo not shown) [Compound D289] | 10 to 100
CNC(=O)N1CCc2c(-c3cc(OC)c(CN4CCC(C(=O)N5CCC6(CC5)CC(Oc5ccc7c(c5)C(=O)N(C5CCC(=O)NC5=O)C7=O)C6)CC4)c(OC)c3)cn(C)c(=O)c2C1 (stereo not shown) [Compound D254] | < 10
CNC(=O)N1CCc2c(-c3cc(OC)c(CN4CCC(CCN5CCN(c6cc7c(c(OC)c6)C(=O)N(C6CCC(=O)NC6=O)C7)CC5)CC4)c(OC)c3)cn(C)c(=O)c2C1 (stereo not shown) [Compound D50] | 10 to 100
COc1cc(-c2cn(C)c(=O)c3c2CCN(C(=O)NCC(F)F)C3)cc(OC)c1CN1CCN(CCC2CCN(c3ccc4c(c3)C(=O)N(C3CCC(=O)NC3=O)C4=O)CC2)CC1 (stereo not shown) [Compound D46] | < 10

Second part, the compound after the results:

IC50 [nM] | SMILES
100 to 1000 | COc1cc(-c2cn(C)c(=O)c3c2CCN(C(=O)NC2CCC4CN(CCCOc5ccc6c(c5)C(=O)N(C5CCC(=O)NC5=O)C6=O)CC42)C3)cc(OC)c1CN(C)C (stereo not shown) [Compound D244]
10 to 100 | COc1cc(-c2cn(C)c(=O)c3c2CCN(C(=O)NCC2CC4CN(CCCCN5CCN(c6ccc7c(c6)C(=O)N(C6CCC(=O)NC6=O)C7=O)CC5)CC4C2)C3)cc(OC)c1CN(C)C (stereo not shown) [Compound D232]
≥ 1000 | CNC(=O)N1CCc2c(c(-c3cc(OC)c(CN(C)CC45CC(C(=O)NCCCCCOc6cccc7c6C(=O)N(C6CCC(=O)NC6=O)C7=O)(C4)C5)c(OC)c3)cn(C)c2=O)C1 (stereo not shown) [Compound D294]
100 to 1000 | COc1cc(-c2cn(C)c(=O)c3c2CCN(C(=O)NC2CC4CC2CN4CCOc2ccc4c(c2)C(=O)N(C2CCC(=O)NC2=O)C4=O)C3)cc(OC)c1CN(C)C (stereo not shown) [Compound D274]
< 10 | CNC(=O)N1CCc2c(-c3cc(OC)c(CN4CCC(CN5CCC6(CC5)CN(c5ccc7c(c5)CN(C5CCC(=O)NC5=O)C7=O)C6)CC4)c(OC)c3)cn(C)c(=O)c2C1 (stereo not shown) [Compound D56]
< 10 | COc1cc(-c2cn(C)c(=O)c3c2CCN(C(=O)NCCCCCCCCNc2cccc4c2CN(C2CCC(=O)NC2=O)C4=O)C3)cc(OC)c1CN1CCC1 (stereo not shown) [Compound D89]
< 10 | CNC(=O)N1CCc2c(-c3cc(OC)c(CN4CCC(CCN5CCN(c6cc7c(cc6F)CN(C6CCC(=O)NC6=O)C7=O)CC5)CC4)c(OC)c3)cn(C)c(=O)c2C1 (stereo not shown) [Compound D83]
< 10 | CNC(=O)N1CCc2c(-c3cc(OC)c(CN4CC(N5CCN(c6ccc7c(c6)C(=O)N(C6CCC(=O)NC6=O)C7=O)CC5)C4)c(OC)c3)cn(C)c(=O)c2C1 (stereo not shown) [Compound D132]
10 to 100 | CNC(=O)N1CCc2c(-c3cc(OC)c(CN(C)CCOCCN4CCN(c5ccc6c(c5)C(=O)N(C5CCC(=O)NC5=O)C6=O)CC4)c(OC)c3)cn(C)c(=O)c2C1 (stereo not shown) [Compound D284]
≥ 1000 | COc1cc(-c2cn(C)c(=O)c3c2CCN(C(=O)NCC2CC4(CCN(CCCCN5CCN(c6ccc7c(c6)C(=O)N(C6CCC(=O)NC6=O)C7=O)CC5)CC4)O2)C3)cc(OC)c1CN(C)C (stereo not shown) [Compound D193]
< 10 | CNC(=O)N1CCc2c(-c3cc(OC)c(CN4CCC(CCN(C)C5CCN(c6ccc7c(c6)C(=O)N(C6CCC(=O)NC6=O)C7=O)CC5)CC4)c(OC)c3)cn(C)c(=O)c2C1 (stereo not shown) [Compound D200]
< 10 | CNC(=O)N1CCc2c(-c3cc(OC)c(CN4CCC(CN5CCC6(CC5)CC(Oc5ccc7c(c5)C(=O)N(C5CCC(=O)NC5=O)C7=O)C6)CC4)c(OC)c3)cn(C)c(=O)c2C1 (stereo not shown) [Compound D253]

Same assay, conditions: SYO-1 cells, 6 hours, Table 6A

IC50 [nM] | SMILES
> 10 | CNC(=O)N1CCc2c(-c3cc(OC)c(CN4CC(NC(=O)CCCCCOc5cccc6c5C(=O)N(C5CCC(=O)NC5=O)C6=O)C4)c(OC)c3)cn(C)c(=O)c2C1 (stereo not shown) [Compound D16, 5-(4-[[3-(6-[[2-(2,6-dioxopiperidin-3-yl)-1,3-dioxoisoindol-4-yl]oxy]hexanamido)azetidin-1-yl]methyl]-3,5-dimethoxyphenyl)-N,7-dimethyl-8-oxo-3,4-dihydro-1H-2,7-naphthyridine-2-carboxamide formic acid]

Same assay, conditions: SYO-1 cells, 6 hours, Table 6C

SMILES | IC50 [nM]
COc1cc(-c2cn(C)c(=O)c3c2CCN(C(=O)NCC(F)F)C3)cc(OC)c1CN1CCN(CCC2CCN(c3ccc4c(c3)C(=O)N(C3CCC(=O)NC3=O)C4)CC2)CC12CCC2 (stereo not shown) [Compound D333] | < 10
COc1cc(-c2cn(C)c(=O)c3c2CCC3)cc(OC)c1CN1CCC2(CC1)CN(c1ccc3c(c1)C(=O)N(C1CCC(=O)NC1=O)C3)C2 (stereo not shown) [Compound D356] | < 10
CNC(=O)N1CCc2c(-c3cc(OC)c(CN4CCN(CCC5CCN(c6ccc7c(c6)CN(C6CCC(=O)NC6=O)C7=O)CC5(F)F)CC4)c(OC)c3)cn(C)c(=O)c2C1 (stereo not shown) [Compound D330] | < 10

Other lines, results leading:

IC50 [nM] | SMILES
< 10 | [2H]C([2H])([2H])NC(=O)N1CCc2c(-c3cc(OC)c(CN4CCN(CCC5CCN(c6ccc7c(c6)C(=O)N(C6CCC(=O)NC6=O)C7)CC5)CC4)c(OC)c3)cn(C)c(=O)c2C1 (stereo not shown) [Compound D341]
< 10 | CNC(=O)N1CCc2c(-c3cc(OC)c(CN4CCC(CCN5C(C)CC(c6ccc7c(c6)C(=O)N(C6CCC(=O)NC6=O)C7=O)CC5C)CC4)c(OC)c3)cn(C)c(=O)c2C1 (stereo not shown) [Compound D342]
< 10 | COc1cc(-c2cn(C)c(=O)c3c2CCCN3)cc(OC)c1CN1CCC2(CC1)CN(c1ccc3c(c1)C(=O)N(C1CCC(=O)NC1=O)C3)C2 (stereo not shown) [Compound D361]
< 10 | CNC(=O)N1CCc2c(-c3cc(OC)c(CN4[C@H](C)CN(CCC5CCN(c6ccc7c(c6)C(=O)N(C6CCC(=O)NC6=O)C7)CC5)C[C@H]4C)c(OC)c3)cn(C)c(=O)c2C1 (stereo partly shown) [Compound D326]
≥ 10 | COc1cc(-c2cn(C)c(=O)c3c2N(C)CC3)cc(OC)c1CN1CC(CN2CCC3(CC2)CN(c2ccc4c(c2)C(=O)N(C2CCC(=O)NC2=O)C4)C3)C1 (stereo not shown) [Compound D352]
